In US5721245A, “4-[3-indolyl]-1H-pyrrolone” (Hoffmann-La Roche Inc., priority 1989, dated 1998):
Structures can show the parent of a compound that is named as a salt.

Biological target: protein kinase C
Test: Inhibition of protein kinase C in vitro (protein kinase-induced incorporation of 32P from [γ-32P]ATP into histone)
Assay type: biochemical
Details: concentration which reduces by 50% the protein kinase-induced incorporation of 32P from [γ-32P]ATP into histone
Excerpt: The IC50 FIGURES in the following Table are that concentration of test compound which reduces by 50% the protein kinase-induced incorporation of ^32 P from [γ-^32 P]ATP into histone.

Row | IC50 [nM] | Structure (SMILES)
1 | 20 | CN(C)CC1Cc2c(C3=C(c4cn(C)c5ccccc45)C(=O)NC3=O)c3ccccc3n2C1 (centres unmarked) [3-[2,3-dihydro-2-(dimethylaminomethyl)-1H-pyrrolo[1,2-a]indol-9-yl]-4-(1-methyl-3-indolyl)-1H-pyrrole-2,5-dione trifluoromethanesulphonate]
2 | 20 | Cn1cc(C2=C(c3c4n(c5ccccc35)CC(CCN)CC4)C(=O)NC2=O)c2ccccc21 (centres unmarked) [3-[7-(2-aminoethyl)-6,7,8,9-tetrahydropyrido[1,2-a]indol-10-yl]-4-(1-methyl-3-indolyl)-1H-pyrrole-2,5-dione hydrochloride]
3 | 10 | Cn1cc(C2=C(c3c4n(c5ccccc35)CC(CSC(=N)N)CC4)C(=O)NC2=O)c2ccccc21 (centres unmarked) [3-[7-(amidinothiomethyl)-6,7,8,9-tetrahydropyrido[1,2-a]indol-10-yl]-4-(1-methyl-3-indolyl)-1H-pyrrole-2,5-dione methanesulfonate]

The next lines start with the compound.

Row | Structure (SMILES) | IC50 [nM]
4 | Cn1cc(C2=C(c3c4n(c5ccccc35)CCC(CN3CCCCC3)C4)C(=O)NC2=O)c2ccccc21 (centres unmarked) [3-[6,7,8,9-tetrahydro-8-[(1-piperidino)methyl]pyrido[1,2-a]indol-10-yl]-4-(1-methyl-3-indolyl)-1H-pyrrole-2,5-dione] | 30
5 | Cn1cc(C2=C(c3c4n(c5ccccc35)CCC(C(=N)N)C4)C(=O)NC2=O)c2ccccc21 (centres unmarked) [3-[8-amidino-6,7,8,9-tetrahydropyrido[1,2-a]indol-10-yl]-4-(1-methyl-3-indolyl)-1H-pyrrole-2,5-dione hydrochloride] | 60
6 | Cn1cc(C2=C(c3c4n(c5ccccc35)CC(CN)CC4)C(=O)NC2=O)c2ccccc21 (centres unmarked) [3-[7-(aminomethyl)-6,7,8,9-tetrahydropyrido[1,2-a]indol-10-yl]-4-(1-methyl-3-indolyl)-1H-pyrrole-2,5-dione] | 15
7 | Cn1cc(C2=C(c3c4n(c5ccccc35)CCN(C(=O)CN)C4)C(=O)NC2=O)c2ccccc21 [3-[2-(aminoacetyl)-1,2,3,4-tetrahydropyrazino[1,2-a]indol-10-yl]-4-(1-methyl-3-indolyl)-1H-pyrrole-2,5-dione hydrochloride] | 50
8 | Cn1cc(C2=C(c3c4n(c5ccccc35)CCC(CN)C4)C(=O)NC2=O)c2ccccc21 (centres unmarked) [3-[8-(aminomethyl)-6,7,8,9-tetrahydropyrido[1,2-a]indol-10-yl]-4-(1-methyl-3-indolyl)-1H-pyrrole-2,5-dione hydrochloride] | 8
